Test system: E3 ubiquitylation reaction (E1, E2, and E3)
Assay: E3 ligase assay using 5′-IAF-UBA1, inhibition assays
Format: biochemical, human
Conditions: E1, E2, and E3 pre-incubated with various concentrations for 30 minutes at room temperature; detection with 5′-IAF-UBA1 and immunoblot; FIGS. 9A-D
Experimental: E3 ligase reactions contained 10 nM GST-Praja1, 500 nM 6× His-SUMO-CARP2 or 500 nM 6× His-SUMO-MuRF1 as E3s, 50 nM E1, 150 nM UbcH5c (E2), 500 ng Ubiquitin, 2 mM ATP, 50 mM Tris-HCl pH8.0, 5 mM MgCl2, 0.1 mM DTT. For measuring SCF^Atrogin-1 E3 ligase activity, the reaction was assembled essentially as described above except that the E3 ligase contained 6× His-SUMO-Atrogin-1, Cullin-1 (“Cul1”), Roc-1 (“Rbx-1”) and 6× His-Skp1 (250 nM each). In order to obtain large amounts of the Cul1-Rbx1 complex for the SCF complex, we used a procedure to overexpress the Cul1-Rbx1 complex in E. coli. Zheng, et al., Nature, 416(6882):703-9 (2002). The Cul1 gene was split into two halves (residues 1-410 and residues 411-776) and co-expressed with GST-tagged Rbx1 as three different polypeptide chains. A PCR product encoding Skp1 was generated using the primers 5′-[…]-3′ (SEQ ID NO:28) and 5′-[…]-3′ (SEQ ID NO:29) and human Skp1 cDNA as the template. […]
For inhibition assays, reactions containing E1, E2, and E3 were pre-incubated with various concentrations of NEM and ubistatin A for 30 minutes at room temperature before initiating the reaction by adding ubiquitin and ATP. […] The wells were washed with 1× PBS and readings were taken using a fluorescence plate reader with excitation and emission wavelengths of 485 nm and 535 nm, respectively. […]

Compound	inhibition of the E3 ubiquitylation assay
CCN1C(=O)C=CC1=O [NEM]	inhibited
O=C(Nc1ccc(/C=C/c2ccc(NC(=O)c3cc(S(=O)(=O)O)c4cccnc4c3O)cc2S(=O)(=O)O)c(S(=O)(=O)O)c1)c1cc(S(=O)(=O)O)c2cccnc2c1O [Ubistatin A]	inhibited
